# From patent publication US20060014723A1, “Anti-parasitic uses of borinic acid complexes” (priority 2004, published 2006)
# Key:
# P. Berghei = test: In vivo efficacy mouse malaria model; conditions: 1×/day
# Protocol: Test compounds will be compared to chloroquine, artemisinin, mefloquine as follows: NMRI mice, SPF, females, […]
# From a donor mouse with approximately 30% parasitemia, heparinized blood is taken and diluted in physiological saline to 10^8 parasitized erythrocytes per mL. An aliquot of 0.2 mL (=2×10^7 parasitized erythrocytes) of this suspension is injected intravenously (i.v.) into experimental groups of 4 mice.
# Two-to-four hours post-infection, the experimental groups are treated with a single dose by the subcutaneous or the oral route. The compounds are prepared at an appropriate concentration, as a solution or suspension containing 3% ethanol and 7% Tween 80 or in SSV (standard suspending vehicle): […]
# Twenty-four hours after the last treatment ([…]) blood smears from all animals are prepared and stained with Giemsa. Parasitemia is determined microscopically by counting 400 red blood cells (“rbcs”), for low parasitemias (<1%) up to 4,000 rbc's have to be counted. The difference between the mean value of the control group (taken as 100%) and those of the experimental groups is calculated and expressed as % Reduction where: [formula]
# Additional smears will be taken on day 5 and day 6; and parasitemia will be determined and the activity calculated. Survival time (in days) is recorded, and the mean survival time is calculated. Adverse effects are recorded. Four mice/compound and a minimum of 12 mice/study (vehicle and positive controls run concurrently) are used.
# [1] = system: Leishmania donovani strain MHOM/ET1671L82; test: Leishmaniasis in vitro screening model (axenic amastigotes, Alamar Blue); assay type: cell-based
# In short: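 Axenic L. donovani amastigotes (10^5 per well) from hamster spleen, grown at 37° C in SM medium pH 5.4 with 10% FBS, 5% CO2, exposed to serial 3-fold compound dilutions (30 to 0.041 μg/mL) for 72 h. Alamar Blue added for 2 h, fluorescence read (ex 536/em 588 nm); IC50 from sigmoidal curve versus control cultures.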
# [2] = system: Trypanosoma cruzi Tulahuen C2C4 strain; test: Chagas disease in vitro screening model (beta-galactosidase strain in L-6 cells); assay type: cell-based
# In short: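 L-6 rat myoblasts in RPMI 1640/10% FBS at 37 °C were infected with 5×10^3 lacZ-expressing T. cruzi Tulahuen C2C4 trypomastigotes. CPRG/Nonidet substrate was read at 540 nm, and IC50 came from sigmoidal curves.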
# P. falciparum K1 = test: Malaria in vitro screening model (3H-hypoxanthine incorporation); assay type: cell-based, Plasmodium falciparum
# In short: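 Chloroquine/pyrimethamine-resistant P. falciparum K1 in human A+ erythrocytes (0.15% parasitemia, 2.5% hematocrit) was exposed to seven 2-fold compound dilutions in hypoxanthine-free medium at 37 °C, low O2. After 48 h, 0.5 μCi ³H-hypoxanthine was added for 24 h more. IC50 was taken from sigmoidal curves as % of untreated control.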
# [3] = system: T. b. rhodesiense STIB 900; test: African sleeping sickness in vitro screening model (Alamar Blue); assay type: cell-based, Trypanosoma brucei rhodesiense
# In short: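 Bloodstream-form trypomastigotes, 8×10^3/well, were grown in supplemented MEM with 15% horse serum, without hypoxanthine, at 37 °C in 5% CO2. They were exposed for 72 h to seven 3-fold dilutions from 90 to 0.123 μg/mL. Resazurin (Alamar Blue) was added for 2 h, fluorescence read at ex 536/em 588 nm, and IC50 taken as the mean of four values.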
Compound,"% of Activity (P. Berghei; 4 × 30 mg/kg, s.c.)","Mean Survival (P. Berghei; 4 × 30 mg/kg, s.c.)","Parasitized RBC over 100 % of Control (P. Berghei; 4 × 30 mg/kg, s.c.)","Parasitized RBC over 100 Mean (P. Berghei; 4 × 30 mg/kg, s.c.)","% of Activity (P. Berghei; 4 × 100 mg/kg, p.o.)","Mean Survival (P. Berghei; 4 × 100 mg/kg, p.o.)","Parasitized RBC over 100 % of Control (P. Berghei; 4 × 100 mg/kg, p.o.)","Parasitized RBC over 100 Mean (P. Berghei; 4 × 100 mg/kg, p.o.)",L. donovani IC50 [1],T. cruzi IC50 [2],P. falciparum IC50 (P. falciparum K1),T. b. rhodesiense IC50 [3]
"Fc1cccc(B(Oc2cccc3cccnc23)c2ccc(Cl)cc2)c1 [Compound 11, (4-Chlorophenyl)(3-fluorophenyl) borinic acid quinolin-8-yl ester]",42.46%,19.7 days,57.54%,14.3,58.22%,15.0 days,41.78%,10.4,–,–,–,–
Nc1cccc(C(=O)OB(c2ccc(Cl)cc2)c2ccc(Cl)cc2)n1 [Compound 131],–,–,–,–,–,–,–,–,0.24 µg/mL,0.0535 µg/mL,0.6855 µg/mL,7.6 µg/mL
